What all share (assay type): biochemical
One experiment concerns the target T1, Sirt2 (Homo sapiens, UniProt Q8IXJ6).
T1 sequence (Q8IXJ6 2-389): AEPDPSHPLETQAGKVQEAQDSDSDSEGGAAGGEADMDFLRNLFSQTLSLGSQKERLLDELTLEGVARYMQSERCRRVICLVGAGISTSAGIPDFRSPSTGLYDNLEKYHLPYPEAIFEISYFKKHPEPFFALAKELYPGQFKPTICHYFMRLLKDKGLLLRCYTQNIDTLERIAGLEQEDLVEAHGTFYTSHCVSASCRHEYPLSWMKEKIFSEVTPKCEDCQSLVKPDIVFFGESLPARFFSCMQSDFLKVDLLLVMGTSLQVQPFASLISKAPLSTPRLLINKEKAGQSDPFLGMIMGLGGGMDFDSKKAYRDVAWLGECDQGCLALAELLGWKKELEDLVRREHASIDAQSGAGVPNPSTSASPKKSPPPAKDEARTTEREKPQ
Nature of the experiment: fluorescent deacetylase assay, Lineweaver-Burk kinetics (IC50 […]).

A further experiment has as its target T2, Sirt1 (Homo sapiens, UniProt Q96EB6).
T2 construct: human recombinant Sirt1 (Cayman Direct Fluorescent Screening Assay kit)
T2 sequence (Q96EB6 2-747): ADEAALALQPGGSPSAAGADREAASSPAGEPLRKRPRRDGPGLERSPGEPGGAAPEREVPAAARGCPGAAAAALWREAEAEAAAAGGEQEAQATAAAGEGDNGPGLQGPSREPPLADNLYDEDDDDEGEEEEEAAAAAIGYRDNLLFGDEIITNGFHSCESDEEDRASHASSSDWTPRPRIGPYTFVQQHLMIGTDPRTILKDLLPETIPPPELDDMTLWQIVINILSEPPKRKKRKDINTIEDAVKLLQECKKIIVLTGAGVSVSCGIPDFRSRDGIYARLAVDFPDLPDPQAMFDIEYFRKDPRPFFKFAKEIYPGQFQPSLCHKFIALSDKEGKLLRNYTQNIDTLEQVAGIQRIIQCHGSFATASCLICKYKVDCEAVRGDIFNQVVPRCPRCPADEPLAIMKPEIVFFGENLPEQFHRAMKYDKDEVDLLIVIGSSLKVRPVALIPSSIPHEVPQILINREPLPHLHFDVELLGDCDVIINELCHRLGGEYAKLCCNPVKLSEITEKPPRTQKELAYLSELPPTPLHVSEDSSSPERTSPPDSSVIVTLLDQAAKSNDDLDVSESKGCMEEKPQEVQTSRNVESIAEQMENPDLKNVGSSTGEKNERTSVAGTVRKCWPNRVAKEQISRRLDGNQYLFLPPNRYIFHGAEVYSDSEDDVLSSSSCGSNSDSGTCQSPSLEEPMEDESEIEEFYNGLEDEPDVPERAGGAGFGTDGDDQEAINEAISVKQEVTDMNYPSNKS
The experiment can be described thus: fluorescent deacetylase assay.

In the next experiment the target is T3, Sirt3 (Homo sapiens, UniProt Q9NTG7).
T3 construct: human recombinant Sirt3 (Cayman Direct Fluorescent Screening Assay kit)
T3 sequence (Q9NTG7 102-399): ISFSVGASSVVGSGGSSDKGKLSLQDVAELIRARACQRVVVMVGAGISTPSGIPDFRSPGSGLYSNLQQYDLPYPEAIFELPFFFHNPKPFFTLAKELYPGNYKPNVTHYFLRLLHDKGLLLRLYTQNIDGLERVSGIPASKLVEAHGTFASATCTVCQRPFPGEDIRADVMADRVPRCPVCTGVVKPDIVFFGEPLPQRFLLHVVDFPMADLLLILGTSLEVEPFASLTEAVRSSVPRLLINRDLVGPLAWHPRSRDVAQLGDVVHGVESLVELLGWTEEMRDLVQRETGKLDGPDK
The experiment can be described thus: fluorescent deacetylase assay, % inhibition at […].

Usually Ki stands for a measure of affinity in units of concentration, obtained from inhibition or displacement. A lower Ki goes with tighter binding. Usually IC50 stands for the concentration that gives 50% inhibition. Read a low IC50 as greater potency. By inhibition is commonly meant the relative decrease from the control value, in per cent. A higher inhibition goes with a strong effect. The compound `O=C(/C=C/c1ccc(O)c(O)c1)N[C@@H](Cc1c[nH]c2ccccc12)C(=O)O` [javamide-II, (E)-(3-(3,4-dihydroxyphenyl)acryloyl)tryptophan] displayed an inhibition constant Ki at Sirt2 of 5.3 µM. Also, on Sirt1, the 50% inhibitory concentration (IC50) was determined as 34 µM. The compound further registered an inhibition at 60 µM against Sirt3 of 50 ± 8.1%.

These data come from paper PMC4795788, “Finding Potent Sirt Inhibitor in Coffee: Isolation, Confirmation and Synthesis of Javamide-II (N-Caffeoyltryptophan) as Sirt1/2 Inhibitor” (PLoS ONE, 2016).
